Experimental data published in ChEMBL document CHEMBL1201862, “PubChem BioAssay data set” (2004).
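96-well plates; 48 h exposure; 5 concentrations. Endpoints by linear interpolation between flanking doses. Not reached: highest tested concentration assigned. Abbreviation: GI50, concentration required for 50% inhibition of growth.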 Active and inactive are the calls of the source. Rule as the data show it: active = GI50 up to about 1.1 µM and inactive = higher.

Experiments:
Assay in all cases: NCI anticancer screen, dose series, 48 h
[1] = system: MOLT-4
[2] = system: HCC 2998
[3] = system: SW-620
[4] = system: NCI-H23
[5] = system: SNB-19
[6] = system: UACC-62
[7] = system: OVCAR-4
[8] = system: SK-MEL-5
[9] = system: OVCAR-5
[10] = system: HCT-15
[11] = system: A549
[12] = system: RXF 393
[13] = system: SF-295
[14] = system: Malme-3M
[15] = system: UO-31
[16] = system: SK-MEL-28
[17] = system: SK-OV-3
[18] = system: U-251
[19] = system: CCRF-CEM
[20] = system: SF-268

C[S+](C)CC1OC(n2cnc3c(N)ncnc32)C(O)C1O (configuration not stated)
GI50 [1]: > 225 µM (inactive)
GI50 [2]: > 225 µM (inactive)
GI50 [3]: > 225 µM (inactive)
GI50 [4]: > 225 µM (inactive)
GI50 [5]: > 225 µM (inactive)
GI50 [6]: > 96.2 µM (inactive)
GI50 [7]: > 225 µM (inactive)
GI50 [8]: > 225 µM (inactive)
GI50 [9]: > 225 µM (inactive)
GI50 [10]: > 225 µM
GI50 [11]: > 225 µM (inactive)
GI50 [12]: > 225 µM (inactive)
GI50 [13]: > 225 µM (inactive)
GI50 [14]: > 225 µM (inactive)
GI50 [15]: > 225 µM (inactive)
GI50 [16]: > 225 µM (inactive)
GI50 [17]: > 225 µM (inactive)
GI50 [18]: > 225 µM (inactive)
GI50 [19]: > 225 µM (inactive)
GI50 [20]: > 225 µM (inactive)

O=C(O)C(O)Cc1ccccn1 (configuration not stated)
GI50 [2]: > 100 µM (inactive)
GI50 [3]: > 100 µM (inactive)
GI50 [4]: > 100 µM (inactive)
GI50 [5]: > 100 µM (inactive)
GI50 [6]: > 100 µM (inactive)
GI50 [7]: > 100 µM (inactive)
GI50 [8]: > 100 µM (inactive)
GI50 [9]: > 100 µM (inactive)
GI50 [10]: > 100 µM
GI50 [11]: > 100 µM (inactive)
GI50 [12]: > 100 µM (inactive)
GI50 [13]: > 100 µM (inactive)
GI50 [14]: > 100 µM (inactive)
GI50 [15]: > 100 µM (inactive)
GI50 [16]: > 100 µM (inactive)
GI50 [17]: > 100 µM (inactive)
GI50 [18]: > 100 µM (inactive)
GI50 [19]: > 100 µM (inactive)
GI50 [20]: > 100 µM (inactive)

O=S1(=O)CC#CC[C@@H](CO)[C@@H](CO)CC#CC1
GI50 [1]: 42.5 µM (inactive)
GI50 [2]: > 100 µM (inactive)
GI50 [3]: 36.4 µM (inactive)
GI50 [4]: > 100 µM (inactive)
GI50 [6]: > 100 µM (inactive)
GI50 [7]: > 100 µM (inactive)
GI50 [8]: > 100 µM (inactive)
GI50 [9]: > 100 µM (inactive)
GI50 [10]: > 100 µM
GI50 [11]: > 100 µM (inactive)
GI50 [12]: > 100 µM (inactive)
GI50 [13]: > 100 µM (inactive)
GI50 [14]: 21.7 µM (inactive)
GI50 [15]: > 100 µM (inactive)
GI50 [16]: 72.3 µM (inactive)
GI50 [17]: > 100 µM (inactive)
GI50 [18]: > 100 µM (inactive)
GI50 [19]: 22.5 µM (inactive)

C=CC1(c2ccccc2Cl)N/C(=C/OCC)CO1 (configuration not stated)
GI50 [1]: > 100 µM (inactive)
GI50 [2]: > 100 µM (inactive)
GI50 [3]: 13.2 µM (inactive)
GI50 [4]: > 100 µM (inactive)
GI50 [5]: > 100 µM (inactive)
GI50 [6]: > 100 µM (inactive)
GI50 [7]: > 100 µM (inactive)
GI50 [8]: > 100 µM (inactive)
GI50 [9]: > 100 µM (inactive)
GI50 [10]: > 100 µM
GI50 [11]: 38.2 µM (inactive)
GI50 [12]: 10.3 µM (inactive)
GI50 [13]: > 100 µM (inactive)
GI50 [14]: > 100 µM (inactive)
GI50 [15]: > 100 µM (inactive)
GI50 [16]: > 100 µM (inactive)
GI50 [17]: > 100 µM (inactive)
GI50 [18]: > 100 µM (inactive)
GI50 [19]: > 100 µM (inactive)
GI50 [20]: > 100 µM (inactive)

O=C1C=C/C(=C/[C@H]2SSC=C[C@]23C=CC(=O)C3)C1
GI50 [1]: 1.36 µM (inactive)
GI50 [2]: 20.6 µM (inactive)
GI50 [3]: 11.9 µM (inactive)
GI50 [4]: 19.2 µM (inactive)
GI50 [5]: 36.1 µM (inactive)
GI50 [6]: 18 µM (inactive)
GI50 [7]: 30 µM (inactive)
GI50 [8]: 16.9 µM (inactive)
GI50 [9]: 13 µM (inactive)
GI50 [10]: 14.9 µM
GI50 [11]: 22.8 µM (inactive)
GI50 [12]: 13.3 µM (inactive)
GI50 [13]: 30.7 µM (inactive)
GI50 [14]: 16.9 µM (inactive)
GI50 [15]: 14.8 µM (inactive)
GI50 [16]: 18.9 µM (inactive)
GI50 [17]: 49.7 µM (inactive)
GI50 [18]: 28.5 µM (inactive)
GI50 [19]: 2.54 µM (inactive)
GI50 [20]: 26.5 µM (inactive)

C=C1C[C@@H](O)C[C@@]2(C)C[C@@H]3OC(=O)C(=C)[C@@H]3C[C@H]12
GI50 [1]: 3.2 µM (inactive)
GI50 [2]: 3.82 µM (inactive)
GI50 [3]: 5.42 µM (inactive)
GI50 [4]: 15.9 µM (inactive)
GI50 [5]: 5.21 µM (inactive)
GI50 [6]: 5.96 µM (inactive)
GI50 [7]: 15.2 µM (inactive)
GI50 [8]: 3.51 µM (inactive)
GI50 [9]: 7.36 µM (inactive)
GI50 [10]: 4.42 µM
GI50 [11]: 23 µM (inactive)
GI50 [12]: 6.34 µM (inactive)
GI50 [13]: 15.3 µM (inactive)
GI50 [14]: 3.37 µM (inactive)
GI50 [15]: 4.85 µM (inactive)
GI50 [16]: 4.82 µM (inactive)
GI50 [17]: 20.7 µM (inactive)
GI50 [18]: 12.2 µM (inactive)
GI50 [19]: 3.56 µM (inactive)
GI50 [20]: 5.46 µM (inactive)

CC[C@H]1CN2CCc3cc(OC)c(OC)cc3[C@@H]2C[C@@H]1C[C@H]1NCCc2cc(O)c(OC)cc21
GI50 [1]: 0.0502 µM (active)
GI50 [2]: 0.0261 µM (active)
GI50 [3]: 0.025 µM (active)
GI50 [4]: 0.0261 µM (active)
GI50 [5]: 0.025 µM (active)
GI50 [6]: 0.0478 µM (active)
GI50 [7]: 0.025 µM (active)
GI50 [8]: 0.0592 µM (active)
GI50 [9]: 0.25 µM (active)
GI50 [10]: 0.0491 µM
GI50 [11]: 0.025 µM (active)
GI50 [12]: 0.0354 µM (active)
GI50 [13]: 0.0326 µM (active)
GI50 [14]: 0.0809 µM (active)
GI50 [15]: 0.146 µM (active)
GI50 [16]: 0.041 µM (active)
GI50 [17]: 0.0562 µM (active)
GI50 [18]: 0.0333 µM (active)
GI50 [19]: 0.025 µM (active)
GI50 [20]: 0.0557 µM (active)
